Tests used:
Format in all cases: functional
SK-MEL-2 = experiment: Growth inhibition of human SK-MEL-2 cells at 10 uM after 48 hrs by sulforhodamine B assay; conditions: SK-MEL-2, 48 h, values are per cent of control
A549 = experiment: Growth inhibition of human A549/ATCC cells at 10 uM after 48 hrs by sulforhodamine B assay; conditions: A549, 48 h, values are per cent of control
[1] = Growth inhibition of human SF539 cells at 10 uM after 48 hrs by sulforhodamine B assay; conditions: SF-539, 48 h, values are per cent of control
[2] = Growth inhibition of human BT549 cells at 10 uM after 48 hrs by sulforhodamine B assay; conditions: BT-549, 48 h, values are per cent of control
NCI-H322M = experiment: Growth inhibition of human NCI-H322M cells at 10 uM after 48 hrs by sulforhodamine B assay; conditions: values are per cent of control
[3] = Growth inhibition of human OVCAR4 cells at 10 uM after 48 hrs by sulforhodamine B assay; conditions: OVCAR-4, 48 h, values are per cent of control
MDA-MB-468 = experiment: Growth inhibition of human MDA-MB-468 cells at 10 uM after 48 hrs by sulforhodamine B assay; conditions: MDA-MB-468, 48 h, values are per cent of control
[4] = Growth inhibition of human SNB75 cells at 10 uM after 48 hrs by sulforhodamine B assay; conditions: SNB-75, 48 h, values are per cent of control
[5] = Growth inhibition of human COLO205 cells at 10 uM after 48 hrs by sulforhodamine B assay; conditions: COLO 205, 48 h, values are per cent of control
A498 = experiment: Growth inhibition of human A498 cells at 10 uM after 48 hrs by sulforhodamine B assay; conditions: A498, 48 h, values are per cent of control
[6] = Growth inhibition of human LOXIMVI cells at 10 uM after 48 hrs by sulforhodamine B assay; conditions: LOX IMVI, values are per cent of control
K562 = experiment: Growth inhibition of human K562 cells at 10 uM after 48 hrs by sulforhodamine B assay; conditions: K562, 48 h, values are per cent of control
M14 = experiment: Growth inhibition of human M14 cells at 10 uM after 48 hrs by sulforhodamine B assay; conditions: M14, 48 h, values are per cent of control
[7] = Growth inhibition of human DU145 cells at 10 uM after 48 hrs by sulforhodamine B assay; conditions: DU-145, 48 h, values are per cent of control
HT-29 = experiment: Growth inhibition of human HT-29 cells at 10 uM after 48 hrs by sulforhodamine B assay; conditions: HT-29, 48 h, values are per cent of control
SK-MEL-5 = experiment: Growth inhibition of human SK-MEL-5 cells at 10 uM after 48 hrs by sulforhodamine B assay; conditions: SK-MEL-5, 48 h, values are per cent of control
SN12C = experiment: Growth inhibition of human SN12C cells at 10 uM after 48 hrs by sulforhodamine B assay; conditions: values are per cent of control
[8] = Growth inhibition of human Caki1 cells at 10 uM after 48 hrs by sulforhodamine B assay; conditions: CAKI-1, 48 h, values are per cent of control
[9] = Growth inhibition of human TK10 cells at 10 uM after 48 hrs by sulforhodamine B assay; conditions: TK-10, 48 h, values are per cent of control
[10] = Growth inhibition of human NCI-ADR-RES cells at 10 uM after 48 hrs by sulforhodamine B assay; conditions: values are per cent of control
[11] = Growth inhibition of human SNB19 cells at 10 uM after 48 hrs by sulforhodamine B assay; conditions: SNB-19, 48 h, values are per cent of control
NCI-H460 = experiment: Growth inhibition of human NCI-H460 cells at 10 uM after 48 hrs by sulforhodamine B assay; conditions: NCI-H460, 48 h, values are per cent of control
[12] = Growth inhibition of human SW620 cells at 10 uM after 48 hrs by sulforhodamine B assay; conditions: SW-620, 48 h, values are per cent of control
SK-MEL-28 = experiment: Growth inhibition of human SK-MEL-28 cells at 10 uM after 48 hrs by sulforhodamine B assay; conditions: SK-MEL-28, 48 h, values are per cent of control
[13] = Growth inhibition of human HCT116 cells at 10 uM after 48 hrs by sulforhodamine B assay; conditions: HCT-116, 48 h, values are per cent of control
[14] = Growth inhibition of human HOP62 cells at 10 uM after 48 hrs by sulforhodamine B assay; conditions: HOP-62, 48 h, values are per cent of control
[15] = Growth inhibition of human SKOV3 cells at 10 uM after 48 hrs by sulforhodamine B assay; conditions: SK-OV-3, 48 h, values are per cent of control
MDA-MB-231 = experiment: Growth inhibition of human MDA-MB-231 cells at 10 uM after 48 hrs by sulforhodamine B assay; conditions: MDA-MB-231, 48 h, values are per cent of control
NCI-H226 = experiment: Growth inhibition of human NCI-H226 cells at 10 uM after 48 hrs by sulforhodamine B assay; conditions: NCI-H226, 48 h, values are per cent of control
KM12 = experiment: Growth inhibition of human KM12 cells at 10 uM after 48 hrs by sulforhodamine B assay; conditions: KM12, 48 h, values are per cent of control
U-251 = experiment: Growth inhibition of human U251 cells at 10 uM after 48 hrs by sulforhodamine B assay; conditions: U-251, 48 h, values are per cent of control
[16] = Growth inhibition of human OVCAR5 cells at 10 uM after 48 hrs by sulforhodamine B assay; conditions: OVCAR-5, 48 h, values are per cent of control
ACHN = experiment: Growth inhibition of human ACHN cells at 10 uM after 48 hrs by sulforhodamine B assay; conditions: values are per cent of control
[17] = Growth inhibition of human RXF393 cells at 10 uM after 48 hrs by sulforhodamine B assay; conditions: RXF 393, 48 h, values are per cent of control
[18] = Growth inhibition of human OVCAR8 cells at 10 uM after 48 hrs by sulforhodamine B assay; conditions: OVCAR-8, 48 h, values are per cent of control
MDA-MB-435 = experiment: Growth inhibition of human MDA-MB-435 cells at 10 uM after 48 hrs by sulforhodamine B assay; conditions: MDA-MB-435, 48 h, values are per cent of control
[19] = Growth inhibition of human SF295 cells at 10 uM after 48 hrs by sulforhodamine B assay; conditions: SF-295, 48 h, values are per cent of control
[20] = Growth inhibition of human UO31 cells at 10 uM after 48 hrs by sulforhodamine B assay; conditions: UO-31, 48 h, values are per cent of control
786-0 = experiment: Growth inhibition of human 786-0 cells at 10 uM after 48 hrs by sulforhodamine B assay; conditions: 786-0, 48 h, values are per cent of control
[21] = Growth inhibition of human SF268 cells at 10 uM after 48 hrs by sulforhodamine B assay; conditions: SF-268, 48 h, values are per cent of control

Structure (SMILES)	growth, % of control at 10 µM (SK-MEL-2)	growth, % of control at 10 µM (A549)	growth, % of control at 10 µM [1]	growth, % of control at 10 µM [2]	growth, % of control at 10 µM (NCI-H322M)	growth, % of control at 10 µM [3]	growth, % of control at 10 µM (MDA-MB-468)	growth, % of control at 10 µM [4]	growth, % of control at 10 µM [5]	growth, % of control at 10 µM (A498)	growth, % of control at 10 µM [6]	growth, % of control at 10 µM (K562)	growth, % of control at 10 µM (M14)	growth, % of control at 10 µM [7]	growth, % of control at 10 µM (HT-29)	growth, % of control at 10 µM (SK-MEL-5)	growth, % of control at 10 µM (SN12C)	growth, % of control at 10 µM [8]	growth, % of control at 10 µM [9]	growth, % of control at 10 µM [10]	other results
COc1cc(/C(C#N)=C/c2ccc3c(c2)OCCO3)cc(OC)c1OC	24.1%	21.1%	2.5%	-17.2%	24.2%	44.9%	-15.1%	17.1%	-74.4%	-11%	24.7%	7.5%	5.7%	6.7%	0.4%	-38%	34.5%	20%	48.5%	17%	growth, % of control at 10 µM [11]: 51.2%; growth, % of control at 10 µM (NCI-H460): 5.2%; growth, % of control at 10 µM [12]: 25.2%; growth, % of control at 10 µM (SK-MEL-28): 63%; growth, % of control at 10 µM [13]: -12.3%; growth, % of control at 10 µM [14]: 40.8%; growth, % of control at 10 µM [15]: 17.6%; growth, % of control at 10 µM (MDA-MB-231): 13.7%; growth, % of control at 10 µM (NCI-H226): 43.9%; growth, % of control at 10 µM (KM12): 2%; growth, % of control at 10 µM (U-251): 8.1%; growth, % of control at 10 µM [16]: 49.1%; growth, % of control at 10 µM (ACHN): 34.4%; growth, % of control at 10 µM [17]: 41.8%; growth, % of control at 10 µM [18]: 10.4%; growth, % of control at 10 µM (MDA-MB-435): -22.2%; growth, % of control at 10 µM [19]: -8%; growth, % of control at 10 µM [20]: 23.9%; growth, % of control at 10 µM (786-0): 14.8%; growth, % of control at 10 µM [21]: 24.6%
N#C/C(=C\c1c(Cl)cccc1Cl)c1ccc2c(c1)OCO2	90.6%	79.9%	97.9%	100%	102%	79.9%	84.9%	51.5%	99.6%	82.7%	98.9%	77.5%	89.7%	99.3%	93.7%	93.5%	95.9%	83.2%	81%	103%	growth, % of control at 10 µM [11]: 106%; growth, % of control at 10 µM (NCI-H460): 102%; growth, % of control at 10 µM [12]: 99.9%; growth, % of control at 10 µM (SK-MEL-28): 104%; growth, % of control at 10 µM [13]: 89.7%; growth, % of control at 10 µM [14]: 90.6%; growth, % of control at 10 µM [15]: 97.9%; growth, % of control at 10 µM (MDA-MB-231): 95.8%; growth, % of control at 10 µM (NCI-H226): 111%; growth, % of control at 10 µM (KM12): 95.2%; growth, % of control at 10 µM (U-251): 89%; growth, % of control at 10 µM [16]: 103%; growth, % of control at 10 µM (ACHN): 103%; growth, % of control at 10 µM [17]: 96.1%; growth, % of control at 10 µM [18]: 92.6%; growth, % of control at 10 µM (MDA-MB-435): 63.5%; growth, % of control at 10 µM [19]: 95.6%; growth, % of control at 10 µM [20]: 80.1%; growth, % of control at 10 µM (786-0): 95.6%; growth, % of control at 10 µM [21]: 102%
N#C/C(=C\c1ccsc1)c1ccc2c(c1)OCO2	106%	92.1%	105%	96.5%	90.6%	91%	105%	67.7%	101%	103%	112%	105%	105%	98.5%	102%	102%	104%	97.3%	104%	113%	growth, % of control at 10 µM [11]: 101%; growth, % of control at 10 µM (NCI-H460): 104%; growth, % of control at 10 µM [12]: 109%; growth, % of control at 10 µM (SK-MEL-28): 113%; growth, % of control at 10 µM [13]: 102%; growth, % of control at 10 µM [14]: 94.5%; growth, % of control at 10 µM [15]: 102%; growth, % of control at 10 µM (MDA-MB-231): 103%; growth, % of control at 10 µM (NCI-H226): 101%; growth, % of control at 10 µM (KM12): 94.6%; growth, % of control at 10 µM (U-251): 93.7%; growth, % of control at 10 µM [16]: 115%; growth, % of control at 10 µM (ACHN): 112%; growth, % of control at 10 µM [17]: 101%; growth, % of control at 10 µM [18]: 90.8%; growth, % of control at 10 µM (MDA-MB-435): 107%; growth, % of control at 10 µM [19]: 101%; growth, % of control at 10 µM [20]: 84.6%; growth, % of control at 10 µM (786-0): 96.7%; growth, % of control at 10 µM [21]: 102%
